Our source for the IC50 values is patent publication US10526327B2, “Histone demethylase inhibitors” (CELGENE QUANTICEL RESEARCH, INC., priority 2013, dated 2020).

Where only a bound is given, the exact number is not on record here.

This experiment has as its target T1, Jarid1A (Homo sapiens, UniProt P29375).
T1 construct: purchased BPS Bioscience 50110
T1 sequence (P29375 1-1090): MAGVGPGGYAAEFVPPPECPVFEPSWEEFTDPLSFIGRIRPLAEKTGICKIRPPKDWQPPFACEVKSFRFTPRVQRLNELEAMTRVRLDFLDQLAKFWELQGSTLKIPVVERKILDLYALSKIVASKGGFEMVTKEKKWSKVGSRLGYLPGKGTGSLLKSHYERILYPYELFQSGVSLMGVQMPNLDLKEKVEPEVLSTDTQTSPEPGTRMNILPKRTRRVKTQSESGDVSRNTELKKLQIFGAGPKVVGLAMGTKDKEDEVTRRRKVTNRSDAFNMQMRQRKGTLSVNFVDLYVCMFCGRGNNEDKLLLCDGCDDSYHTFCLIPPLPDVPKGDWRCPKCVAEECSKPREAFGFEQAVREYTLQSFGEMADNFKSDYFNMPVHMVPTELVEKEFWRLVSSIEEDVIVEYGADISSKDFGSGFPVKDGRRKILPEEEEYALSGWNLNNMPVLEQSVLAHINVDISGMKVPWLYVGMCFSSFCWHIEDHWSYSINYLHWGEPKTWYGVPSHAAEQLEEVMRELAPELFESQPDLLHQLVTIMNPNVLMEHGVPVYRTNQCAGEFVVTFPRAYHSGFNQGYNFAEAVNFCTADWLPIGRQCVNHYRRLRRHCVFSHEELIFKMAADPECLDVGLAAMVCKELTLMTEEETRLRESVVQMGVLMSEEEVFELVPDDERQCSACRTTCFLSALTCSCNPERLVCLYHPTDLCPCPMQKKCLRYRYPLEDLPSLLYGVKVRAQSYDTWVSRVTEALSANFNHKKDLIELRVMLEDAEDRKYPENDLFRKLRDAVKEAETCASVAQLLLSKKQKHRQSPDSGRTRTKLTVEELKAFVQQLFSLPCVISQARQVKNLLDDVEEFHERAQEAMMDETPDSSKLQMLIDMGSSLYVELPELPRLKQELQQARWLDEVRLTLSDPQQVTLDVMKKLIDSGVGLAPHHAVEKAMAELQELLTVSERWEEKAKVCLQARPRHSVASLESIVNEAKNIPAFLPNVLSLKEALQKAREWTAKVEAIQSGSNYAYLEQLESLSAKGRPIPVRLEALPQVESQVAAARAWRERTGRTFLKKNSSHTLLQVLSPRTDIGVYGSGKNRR
Nature of the experiment: Jarid1A in vitro enzyme inhibition assay (TR-FRET). It counts as biochemical. The text has this:
This assay determines the ability of a test compound to inhibit Jarid1A, Jarid1B, and JMJD2C demethylase activity. Baculovirus expressed Jarid1A (GenBank Accession #NM_001042603, AA1-1090) was purchased from BPS Bioscience (Cat#50110). Baculovirus expressed Jarid1B (GenBank Accession #NM_006618, AA 2-751) was purchased from BPS Bioscience (Cat #50121) or custom made by MolecularThroughput. Baculovirus expressed JMJD2C (GenBank Accession #BC143571, AA 2-372) was purchased from BPS Bioscience (Cat#50105).
The enzymatic assay of Jarid1A activity is based upon Time Resolved-Fluorescence Resonance Energy Transfer (TR-FRET) detection. The ability of test compounds to inhibit the activity of Jarid1A was determined in 384-well plate format under the following reaction conditions: 1 nM Jarid1A, 300 nM H3K4me3-biotin labeled peptide (Anaspec cat #64357), 2 μM alpha-ketoglutaric acid in assay buffer of 50 mM HEPES, pH7.3, 0.005% Brij35, 0.5 mM TCEP, 0.2 mg/ml BSA, 50 μM sodium L-ascorbate, and 2 μM ammonium iron(II) sulfate. Reaction product was determined quantitatively by TR-FRET after the addition of detection reagent Phycolink Streptavidin-allophycocyanin (Prozyme) and Europium-anti-mono-or di-methylated histone H3 lysine 4 (H3K4me1-2) antibody (PerkinElmer) in the presence of 5 mM EDTA in LANCE detection buffer (PerkinElmer) at a final concentration of 25 nM and 1 nM, respectively.
The assay reaction was initiated by the following: 2 μl of the mixture of 900 nM H3K4me3-biotin labeled peptide and 6 μM alpha-ketoglutaric acid with 2 μl of 11-point serial diluted inhibitor in 3% DMSO was added to each well of plate, followed by the addition of 2 μl of 3 nM Jarid1A to initiate the reaction. The reaction mixture was incubated at room temperature for 30 minutes, and terminated by the addition of 6 μl of 5 mM EDTA in LANCE detection buffer containing 50 nM Phycolink Streptavidin-allophycocyanin and 2 nM Europium-anti-H3K4me1-2 antibody. Plates were read by EnVisionMultilabel Reader in TR-FRET mode (excitation at 320 nm, emission at 615 nm and 665 nm) after 1 hour incubation at room temperature. A ratio was calculated (665/615) for each well and fitted to determine inhibition constant (IC50).
A general note: TR-FRET usually uses a lanthanide donor and a delayed reading to cut background.
The term IC50 denotes the concentration that gives 50% inhibition. Read a high IC50 as weaker potency. As to `Oc1nc(Oc2cccc(C(F)(F)F)c2)nc2cnccc12` [Example 52, 2-[3-(trifluoromethyl)phenoxy]pyrido[3,4-d]pyrimidin-4-ol], the IC50 is at most 100 nM.

In turn, `CN(C)c1ccc(Oc2nc(O)c3ccncc3n2)cc1` [Example 59, 2-[4-(dimethylamino)phenoxy]pyrido[3,4-d]pyrimidin-4-ol] had an IC50 of at most 100 nM.

`CCC(C)Oc1nc(O)c2ccncc2n1` (stereo not shown) [Example 9, 2-butan-2-yloxy-3H-pyrido[3,4-d]pyrimidin-4-one] returned a 50% inhibitory concentration (IC50) of 1000 to 10000 nM.

The compound `Cn1cnc(-c2nccc3c(O)nc(OCC4CCOCC4)nc23)c1` [Example 102, 8-(1-methyl-1H-imidazol-4-yl)-2-(oxan-4-ylmethoxy)pyrido[3,4-d]pyrimidin-4-ol] had an IC50 of 100 to 1000 nM.

For the compound `Oc1nc(Oc2ccc(Cl)cc2)nc2cnccc12` [Example 49, 2-(4-chlorophenoxy)pyrido[3,4-d]pyrimidin-4-ol], the IC50 is at most 100 nM.

Consider `Cn1cnc(-c2nccc3c(O)nc(OCc4ccc(F)cc4)nc23)c1` [Example 71, 2-[(4-fluorobenzyl)oxy]-8-(1-methyl-1H-imidazol-4-yl)pyrido[3,4-d]pyrimidin-4-ol], for which the IC50 was at most 100 nM.

Turning to `CCOc1nc(O)c2ccnc(-c3cn(C)cn3)c2n1` [Example 69, 2-ethoxy-8-(1-methyl-1H-imidazol-4-yl)pyrido[3,4-d]pyrimidin-4-ol], the IC50 is at most 100 nM.

The compound `COc1ccc(Oc2nc(O)c3ccncc3n2)cc1F` [Example 53, 2-(3-fluoro-4-methoxyphenoxy)pyrido[3,4-d]pyrimidin-4-ol] displayed an IC50 of at most 100 nM.

`COc1ccc(Oc2nc(O)c3ccncc3n2)cc1OC` [Example 38, 2-(3,4-dimethoxyphenoxy)pyrido[3,4-d]pyrimidin-4-ol] returned an IC50 of at most 100 nM.

Compound `COCCn1cc(Oc2nc(O)c3ccncc3n2)cn1` [Example 64, 2-{[1-(2-methoxyethyl)-1H-pyrazol-4-yl]oxy}pyrido[3,4-d]pyrimidin-4-ol] registered an IC50 of at most 100 nM.

In turn, `Cn1cnc(-c2nccc3c(O)nc(OCc4ccccc4Cl)nc23)c1` [Example 105, 2-[(2-chlorophenyl)methoxy]-8-(1-methyl-1H-imidazol-4-yl)pyrido[3,4-d]pyrimidin-4-ol] had an IC50 of 1000 to 10000 nM.

In turn, `O=S(=O)(C1CC1)N1CCC(n2cc(Oc3nc(O)c4ccncc4n3)cn2)CC1` [Example 94, 2-[1-(1-cyclopropylsulfonylpiperidin-4-yl)pyrazol-4-yl]oxypyrido[3,4-d]pyrimidin-4-ol] displayed an IC50 of at most 100 nM.

The compound `COCCCn1cc(Oc2nc(O)c3ccncc3n2)cn1` [Example 65, 2-{[1-(3-methoxypropyl)-1H-pyrazol-4-yl]oxy}pyrido[3,4-d]pyrimidin-4-ol] returned an IC50 of at most 100 nM.

Consider `O=C(c1ccc(F)cc1)N1CCC(n2cc(Oc3nc(O)c4ccncc4n3)cn2)CC1` [Example 93, (4-fluorophenyl)-[4-[4-(4-hydroxypyrido[3,4-d]pyrimidin-2-yl)oxypyrazol-1-yl]piperidin-1-yl]methanone], for which the IC50 was at most 100 nM.

Consider `Oc1nc(OCC2CC2)nc2cnccc12` [Example 5, 2-(cyclopropylmethoxy)-3H-pyrido[3,4-d]pyrimidin-4-one], for which the IC50 was at most 100 nM.

As for `COCCOc1ccc(Oc2nc(O)c3ccnc(-c4cn(C)cn4)c3n2)cc1` [Example 82, 2-[4-(2-methoxyethoxy)phenoxy]-8-(1-methylimidazol-4-yl)pyrido[3,4-d]pyrimidin-4-ol], the IC50 was at most 100 nM.

Regarding `CCCn1cc(Oc2nc(O)c3ccncc3n2)cn1` [Example 54, 2-(1-propylpyrazol-4-yl)oxypyrido[3,4-d]pyrimidin-4-ol], the IC50 is at most 100 nM.

For the compound `Oc1nc(Oc2ccnc(N3CCOCC3)c2)nc2cnccc12` [Example 97, 2-(2-morpholin-4-ylpyridin-4-yl)oxypyrido[3,4-d]pyrimidin-4-ol], the IC50 was at most 100 nM.

`Oc1nc(Oc2cnn(Cc3ccc(F)cc3)c2)nc2cnccc12` [Example 86, 2-[1-(4-fluorobenzyl)pyrazol-4-yl]oxypyrido[3,4-d]pyrimidin-4-ol] showed an IC50 of at most 100 nM.
